{"source": "ChEMBL document CHEMBL1142213", "about": "“Mechanism of antimalarial action of the synthetic trioxolane RBX11160 (OZ277)” (Antimicrob Agents Chemother, 2007)", "key": {"Oryctolagus cuniculus [1]": {"organism": "Oryctolagus cuniculus", "assay": "Inhibition of rabbit muscle SERCA at 10 uM"}, "Oocyte [2]": {"system": "Oocyte", "assay": "Abrogation of Plasmodium falciparum ATP6 inhibition expressed in Xenopus laevis oocytes at 10 uM in presence of 100 uM desferioxamine", "format": "cell-based"}, "Oocyte [3]": {"system": "Oocyte", "assay": "Inhibition of Plasmodium falciparum ATP6 expressed in Xenopus laevis oocytes at 50 uM", "format": "cell-based"}, "Oryctolagus cuniculus [4]": {"organism": "Oryctolagus cuniculus", "assay": "Inhibition of rabbit muscle SERCA at 100 uM"}, "Oocyte [5]": {"system": "Oocyte", "assay": "Inhibition of Plasmodium falciparum HT expressed in Xenopus laevis oocytes assessed as D-[U-14C]glucose uptake at 50 uM", "format": "cell-based"}, "[6]": {"assay": "Inhibition of Plasmodium falciparum ATP6 expressed in Xenopus laevis oocytes", "format": "cell-based", "conditions": "oocyte"}, "Plasmodium falciparum": {"system": "Plasmodium falciparum", "assay": "Antimalarial activity against Plasmodium falciparum NF54 within 48 hrs", "format": "functional, organism-based", "conditions": "NF54, 48 h"}, "[7]": {"assay": "Inhibition of Plasmodium berghei SERCA"}}, "note": "Activity calls are given as the source filed them. The calls are words filed in the database; no cut-off is given here."}
{"smiles": "C/C=C(/C)C(=O)O[C@H]1C(C)=C2[C@H]([C@@H]1OC(=O)CCCCCCC)[C@@](C)(OC(C)=O)C[C@H](OC(=O)CCC)[C@@]1(O)[C@H]2OC(=O)[C@@]1(C)O", "values": [{"measurement": "inhibition", "setting": "Oryctolagus cuniculus [1]", "result": 75, "unit": "%"}]}
{"smiles": "CC(C)(N)CNC(=O)C[C@H]1CC[C@@]2(CC1)OOC1(O2)C2CC3CC(C2)CC1C3", "note": "(some centres undefined)", "values": [{"measurement": "Activity", "setting": "Oocyte [2]", "result": "inactive"}, {"measurement": "Activity", "setting": "Oocyte [3]", "result": "Active"}, {"measurement": "inhibition", "setting": "Oryctolagus cuniculus [4]", "result": 50, "unit": "%"}, {"measurement": "Activity", "setting": "Oocyte [5]", "result": "inactive"}, {"measurement": "Ki", "setting": "[6]", "result": 7.7, "unit": "µM"}, {"measurement": "IC50", "setting": "Plasmodium falciparum", "result": 0.0016, "unit": "µM"}]}
{"smiles": "C[C@@H]1CC[C@H]2[C@@H](C)C(=O)O[C@@H]3O[C@@]4(C)CC[C@@H]1[C@]32OO4", "note": "[ARTEMISININ]", "values": [{"measurement": "Ki", "setting": "[6]", "result": 0.079, "unit": "µM"}, {"measurement": "Ki", "setting": "[7]", "result": 6, "unit": "µM"}]}
